Legend:
[1] = tested on: LPS-induced acute lung injury; conditions: cited from earlier work
NE enzyme = conditions: cited from earlier work
[2] = both, Sprague-Dawley (SD), rat, in vivo, 14 days
Description: The treatment group each includes 16 rats, and the vehicle control group includes 10 rats, with a half of male rats and a half of female rats. The drug at corresponding concentrations and the vehicle were administered to the rats through oral gavage daily for 14 consecutive days. The rats were allowed to recover for 7 days. During the administration period, general conditions, body weight and food intake were detected for each group. After the administration period and the recovery period, hematology test, serum biochemistry test and gross anatomical examination were performed for each group.

Cn1c(=O)oc2ccc(-c3ccc(C[C@@H](C#N)NC(=O)[C@@H]4CNCCCO4)c(F)c3)cc21 [Compound A, (S)—N—((S)-1-cyano-2-(2-fluoro-4-(3-methyl-2-oxo-2,3-dihydrobenzo[d]oxazol-5-yl)phenyl)ethyl)-1,4-oxazepane-2-carboxamide]
Effect on LPS-induced acute lung injury in mice [1]: mitigate LPS-induced acute lung injury in mice | Inhibition of NE enzyme activity in rat bone marrow (NE enzyme): significantly inhibit NE enzyme activity in rat bone marrow | Toxicity compared at the same dose [2]: less toxic than INS1007

From patent US20260263480A1, “PHARMACEUTICAL COMPOSITION CONTAINING A DIPEPTIDYL PEPTIDASE SMALL MOLECULE INHIBITOR” (HAISCO PHARMACEUTICALS PTE. LTD., priority 2023, published 2026)
